Here are results for six compounds from PubChem BioAssay (NCI).

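Following 48 hours of exposure in 96-well plates, responses at five concentrations were used to interpolate endpoints linearly. TGI denotes the concentration required for complete inhibition of growth.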 Bounds are passed on as bounds.

The test system of one assay is A549 NSCLC. Nature of the assay: NCI anticancer screen, dose series, 48 h.
Regarding `COC(=O)c1cc2c(n1S(=O)(=O)c1ccc(C)cc1)C(=O)C(=O)c1[nH]cc(C(=O)OCc3ccccc3)c1-2`, the TGI turned out to be 0.351 µM.
The same measure, in the same setting: the same measure for `CC(C)CC(=O)OC[n+]1ccc(-c2c(COC(=O)NC(C)C)c(COC(=O)NC(C)C)c3n2CCC3)cc1`: over 100 µM; for `COc1ccc(C2c3cc4c(cc3OC(NNS(=O)(=O)c3ccc(C)cc3)C2C)OCO4)cc1` (configuration not stated): over 100 µM; for `CC(C)C1/C(=N/O)CC(c2ccccc2)N(N=O)C1c1ccccc1` (configuration not stated): over 100 µM.
`O=[N+]([O-])C(=C1NCCN1)/C(Cl)=C(\Cl)Br` came in with a TGI of over 100 µM.
In turn, `Cc1cc(N(CCC#N)CCC#N)ccc1/C(N=Nc1ccc(Cl)cc1)=N\NC(=O)c1ccccc1` displayed a TGI of over 100 µM.

The test system of a further assay is ACHN renal. Nature of the assay: NCI anticancer screen, dose series, 48 h.
The compound `COC(=O)c1cc2c(n1S(=O)(=O)c1ccc(C)cc1)C(=O)C(=O)c1[nH]cc(C(=O)OCc3ccccc3)c1-2` came in with a TGI of 0.682 µM.
Consider `CC(C)CC(=O)OC[n+]1ccc(-c2c(COC(=O)NC(C)C)c(COC(=O)NC(C)C)c3n2CCC3)cc1`, for which the TGI is over 100 µM.
The compound `COc1ccc(C2c3cc4c(cc3OC(NNS(=O)(=O)c3ccc(C)cc3)C2C)OCO4)cc1` (configuration not stated) had a TGI of over 100 µM.
The same measure, in the same setting: the same measure for `CC(C)C1/C(=N/O)CC(c2ccccc2)N(N=O)C1c1ccccc1` (configuration not stated): over 100 µM; for `O=[N+]([O-])C(=C1NCCN1)/C(Cl)=C(\Cl)Br`: over 100 µM; for `Cc1cc(N(CCC#N)CCC#N)ccc1/C(N=Nc1ccc(Cl)cc1)=N\NC(=O)c1ccccc1`: over 100 µM.

The next assay has as its system BT-549 breast. Nature of the assay: NCI anticancer screen, dose series, 48 h.
For `COC(=O)c1cc2c(n1S(=O)(=O)c1ccc(C)cc1)C(=O)C(=O)c1[nH]cc(C(=O)OCc3ccccc3)c1-2`, the TGI came out at 0.334 µM.
The same measure, in the same setting: as for `CC(C)CC(=O)OC[n+]1ccc(-c2c(COC(=O)NC(C)C)c(COC(=O)NC(C)C)c3n2CCC3)cc1`, the figure is over 100 µM.
On to `COc1ccc(C2c3cc4c(cc3OC(NNS(=O)(=O)c3ccc(C)cc3)C2C)OCO4)cc1` (configuration not stated), for which the TGI is over 100 µM.
In the case of `CC(C)C1/C(=N/O)CC(c2ccccc2)N(N=O)C1c1ccccc1` (configuration not stated), the TGI was over 100 µM.
The same measure, in the same setting: as for `O=[N+]([O-])C(=C1NCCN1)/C(Cl)=C(\Cl)Br`, the figure is over 96 µM; as for `Cc1cc(N(CCC#N)CCC#N)ccc1/C(N=Nc1ccc(Cl)cc1)=N\NC(=O)c1ccccc1`, over 100 µM.

For another assay, the system named is HCT-15 colon. Nature of the assay: NCI anticancer screen, dose series, 48 h.
With `COC(=O)c1cc2c(n1S(=O)(=O)c1ccc(C)cc1)C(=O)C(=O)c1[nH]cc(C(=O)OCc3ccccc3)c1-2`, the TGI worked out at 0.256 µM.
The same measure, in the same setting: the same measure for `CC(C)CC(=O)OC[n+]1ccc(-c2c(COC(=O)NC(C)C)c(COC(=O)NC(C)C)c3n2CCC3)cc1`: over 100 µM; for `COc1ccc(C2c3cc4c(cc3OC(NNS(=O)(=O)c3ccc(C)cc3)C2C)OCO4)cc1` (configuration not stated): over 100 µM.
Regarding `CC(C)C1/C(=N/O)CC(c2ccccc2)N(N=O)C1c1ccccc1` (configuration not stated), the TGI was over 100 µM.
The same measure, in the same setting: as for `O=[N+]([O-])C(=C1NCCN1)/C(Cl)=C(\Cl)Br`, the figure is 7.93 µM; as for `Cc1cc(N(CCC#N)CCC#N)ccc1/C(N=Nc1ccc(Cl)cc1)=N\NC(=O)c1ccccc1`, over 100 µM.

For the next assay, the system named is MALME-3M melanoma. Nature of the assay: NCI anticancer screen, dose series, 48 h.
`COC(=O)c1cc2c(n1S(=O)(=O)c1ccc(C)cc1)C(=O)C(=O)c1[nH]cc(C(=O)OCc3ccccc3)c1-2` registered a TGI of 0.115 µM.
In the case of `CC(C)CC(=O)OC[n+]1ccc(-c2c(COC(=O)NC(C)C)c(COC(=O)NC(C)C)c3n2CCC3)cc1`, the TGI is over 100 µM.
On to `COc1ccc(C2c3cc4c(cc3OC(NNS(=O)(=O)c3ccc(C)cc3)C2C)OCO4)cc1` (configuration not stated), for which the TGI was over 100 µM.
The compound `CC(C)C1/C(=N/O)CC(c2ccccc2)N(N=O)C1c1ccccc1` (configuration not stated) had a TGI of 61.9 µM.
On to `O=[N+]([O-])C(=C1NCCN1)/C(Cl)=C(\Cl)Br`, for which the TGI was over 61.7 µM.
In turn, `Cc1cc(N(CCC#N)CCC#N)ccc1/C(N=Nc1ccc(Cl)cc1)=N\NC(=O)c1ccccc1` had a TGI of over 100 µM.

Another assay relates to MOLT-4 leukemia. Description: NCI anticancer screen, dose series, 48 h.
In turn, `COC(=O)c1cc2c(n1S(=O)(=O)c1ccc(C)cc1)C(=O)C(=O)c1[nH]cc(C(=O)OCc3ccccc3)c1-2` registered a TGI of 0.944 µM.
As to `CC(C)CC(=O)OC[n+]1ccc(-c2c(COC(=O)NC(C)C)c(COC(=O)NC(C)C)c3n2CCC3)cc1`, the TGI is over 100 µM.
In turn, `COc1ccc(C2c3cc4c(cc3OC(NNS(=O)(=O)c3ccc(C)cc3)C2C)OCO4)cc1` (configuration not stated) showed a TGI of over 100 µM.
On the same count and under the same terms, as for `CC(C)C1/C(=N/O)CC(c2ccccc2)N(N=O)C1c1ccccc1` (configuration not stated), the figure is 95.6 µM; as for `O=[N+]([O-])C(=C1NCCN1)/C(Cl)=C(\Cl)Br`, 65.7 µM.
Still for that read-out and setting: the same measure for `Cc1cc(N(CCC#N)CCC#N)ccc1/C(N=Nc1ccc(Cl)cc1)=N\NC(=O)c1ccccc1`: over 100 µM.

In the next assay the test system is NCI-H460 lung. Nature of the assay: NCI anticancer screen, dose series, 48 h.
Compound `COC(=O)c1cc2c(n1S(=O)(=O)c1ccc(C)cc1)C(=O)C(=O)c1[nH]cc(C(=O)OCc3ccccc3)c1-2` gave a TGI of 2.83 µM.
`CC(C)CC(=O)OC[n+]1ccc(-c2c(COC(=O)NC(C)C)c(COC(=O)NC(C)C)c3n2CCC3)cc1` returned a TGI of over 100 µM.
The compound `COc1ccc(C2c3cc4c(cc3OC(NNS(=O)(=O)c3ccc(C)cc3)C2C)OCO4)cc1` (configuration not stated) had a TGI of over 100 µM.
As for `CC(C)C1/C(=N/O)CC(c2ccccc2)N(N=O)C1c1ccccc1` (configuration not stated), the TGI was found to be 67.5 µM.
Turning to `O=[N+]([O-])C(=C1NCCN1)/C(Cl)=C(\Cl)Br`, the TGI was over 100 µM.
On the same count and under the same terms, as for `Cc1cc(N(CCC#N)CCC#N)ccc1/C(N=Nc1ccc(Cl)cc1)=N\NC(=O)c1ccccc1`, the figure is over 100 µM.

A further assay deals with RXF 393 renal. Description: NCI anticancer screen, dose series, 48 h.
Compound `COC(=O)c1cc2c(n1S(=O)(=O)c1ccc(C)cc1)C(=O)C(=O)c1[nH]cc(C(=O)OCc3ccccc3)c1-2` gave a TGI of 0.824 µM.
As to `CC(C)CC(=O)OC[n+]1ccc(-c2c(COC(=O)NC(C)C)c(COC(=O)NC(C)C)c3n2CCC3)cc1`, the TGI is over 100 µM.
Compound `COc1ccc(C2c3cc4c(cc3OC(NNS(=O)(=O)c3ccc(C)cc3)C2C)OCO4)cc1` (configuration not stated) returned a TGI of over 100 µM.
Still for that read-out and setting: the same measure for `CC(C)C1/C(=N/O)CC(c2ccccc2)N(N=O)C1c1ccccc1` (configuration not stated): over 100 µM; for `O=[N+]([O-])C(=C1NCCN1)/C(Cl)=C(\Cl)Br`: 39.1 µM; for `Cc1cc(N(CCC#N)CCC#N)ccc1/C(N=Nc1ccc(Cl)cc1)=N\NC(=O)c1ccccc1`: over 100 µM.

A further assay concerns SF-295 CNS. Description: NCI anticancer screen, dose series, 48 h.
`COC(=O)c1cc2c(n1S(=O)(=O)c1ccc(C)cc1)C(=O)C(=O)c1[nH]cc(C(=O)OCc3ccccc3)c1-2` came in with a TGI of 0.259 µM.
Compound `CC(C)CC(=O)OC[n+]1ccc(-c2c(COC(=O)NC(C)C)c(COC(=O)NC(C)C)c3n2CCC3)cc1` registered a TGI of over 100 µM.
Consider `COc1ccc(C2c3cc4c(cc3OC(NNS(=O)(=O)c3ccc(C)cc3)C2C)OCO4)cc1` (configuration not stated), for which the TGI is over 100 µM.
`CC(C)C1/C(=N/O)CC(c2ccccc2)N(N=O)C1c1ccccc1` (configuration not stated) registered a TGI of over 100 µM.
Compound `O=[N+]([O-])C(=C1NCCN1)/C(Cl)=C(\Cl)Br` came in with a TGI of over 100 µM.
`Cc1cc(N(CCC#N)CCC#N)ccc1/C(N=Nc1ccc(Cl)cc1)=N\NC(=O)c1ccccc1` showed a TGI of 77.6 µM.

Another assay deals with SK-OV-3 ovarian. Description: NCI anticancer screen, dose series, 48 h.
Turning to `COC(=O)c1cc2c(n1S(=O)(=O)c1ccc(C)cc1)C(=O)C(=O)c1[nH]cc(C(=O)OCc3ccccc3)c1-2`, the TGI turned out to be 2.13 µM.
Still for that read-out and setting: as for `CC(C)CC(=O)OC[n+]1ccc(-c2c(COC(=O)NC(C)C)c(COC(=O)NC(C)C)c3n2CCC3)cc1`, the figure is over 100 µM.
On to `COc1ccc(C2c3cc4c(cc3OC(NNS(=O)(=O)c3ccc(C)cc3)C2C)OCO4)cc1` (configuration not stated), for which the TGI was over 100 µM.
As to `CC(C)C1/C(=N/O)CC(c2ccccc2)N(N=O)C1c1ccccc1` (configuration not stated), the TGI was over 100 µM.
On the same count and under the same terms, as for `O=[N+]([O-])C(=C1NCCN1)/C(Cl)=C(\Cl)Br`, the figure is over 100 µM.
In turn, `Cc1cc(N(CCC#N)CCC#N)ccc1/C(N=Nc1ccc(Cl)cc1)=N\NC(=O)c1ccccc1` came in with a TGI of over 100 µM.

A further assay has as its system SNB-75 CNS. Description: NCI anticancer screen, dose series, 48 h.
Compound `COC(=O)c1cc2c(n1S(=O)(=O)c1ccc(C)cc1)C(=O)C(=O)c1[nH]cc(C(=O)OCc3ccccc3)c1-2` returned a TGI of 0.3 µM.
The same measure, in the same setting: as for `CC(C)CC(=O)OC[n+]1ccc(-c2c(COC(=O)NC(C)C)c(COC(=O)NC(C)C)c3n2CCC3)cc1`, the figure is over 100 µM; as for `COc1ccc(C2c3cc4c(cc3OC(NNS(=O)(=O)c3ccc(C)cc3)C2C)OCO4)cc1` (configuration not stated), over 100 µM; as for `CC(C)C1/C(=N/O)CC(c2ccccc2)N(N=O)C1c1ccccc1` (configuration not stated), over 100 µM.
On the same count and under the same terms, as for `O=[N+]([O-])C(=C1NCCN1)/C(Cl)=C(\Cl)Br`, the figure is over 86.3 µM.
Consider `Cc1cc(N(CCC#N)CCC#N)ccc1/C(N=Nc1ccc(Cl)cc1)=N\NC(=O)c1ccccc1`, for which the TGI is over 100 µM.

The test system of the next assay is UO-31 renal. Description: NCI anticancer screen, dose series, 48 h.
Regarding `COC(=O)c1cc2c(n1S(=O)(=O)c1ccc(C)cc1)C(=O)C(=O)c1[nH]cc(C(=O)OCc3ccccc3)c1-2`, the TGI stood at 0.685 µM.
Same read-out and setting: as for `CC(C)CC(=O)OC[n+]1ccc(-c2c(COC(=O)NC(C)C)c(COC(=O)NC(C)C)c3n2CCC3)cc1`, the figure is over 100 µM.
`COc1ccc(C2c3cc4c(cc3OC(NNS(=O)(=O)c3ccc(C)cc3)C2C)OCO4)cc1` (configuration not stated) came in with a TGI of over 100 µM.
`CC(C)C1/C(=N/O)CC(c2ccccc2)N(N=O)C1c1ccccc1` (configuration not stated) came in with a TGI of 82.9 µM.
Still for that read-out and setting: the same measure for `O=[N+]([O-])C(=C1NCCN1)/C(Cl)=C(\Cl)Br`: over 100 µM; for `Cc1cc(N(CCC#N)CCC#N)ccc1/C(N=Nc1ccc(Cl)cc1)=N\NC(=O)c1ccccc1`: over 100 µM.
